Test results as given in patent US20250171432A1, “COMPOUNDS AND METHODS OF USE” (Tango Therapeutics, Inc., priority 2022, published 2025).

How the values were obtained:
Type in all cases: cell-based
[1] = test system: SDMA (PRMT5 activity) in HAP1 MTAP-intact cell line; experiment: SDMA in-cell western assay, HAP1 MTAP-intact; conditions: Homo sapiens, SDMA in-cell western, HAP1 MTAP-intact cells, 24 hours compound incubation
Procedure: (§1) The SAM-cooperative PRMT5 inhibitor, GSK3326595, was sourced from SelleckChem and maintained as a 10 mM DMSO stock. All test compounds are maintained as 10 mM DMSO stocks
(§2) On Day 0, MTAP-intact or MTAP-deleted cells are seeded in a 384-well plate, and incubated in a humidified, 5% CO2 tissue culture incubator for 16-24 hours. On Day 1, the test compounds are dispensed to wells at defined concentrations using a Tecan D300e digital dispenser (n=4), and the volume of DMSO is normalized to highest class volume. Each plate includes wells dosed with defined concentrations of GSK33226595 as a plate control. The compounds are incubated with cells for 24 hours in a humidified, 5% CO2 tissue culture incubator.
(§3) On Day 2, the compound-treated cells are fixed with a final concentration of 4% formaldehyde. The cells are then washed/permeabilized with 1×PBS+0.1% Triton X-100, and then blocked with 5% goat serum/1×TBS.
(§4) The cells are washed with 1×PBS+0.1% Triton X-100, and then washed again with ddH20. The plates are then imaged using a NIR fluorescent imager (LiCor Odyssey).
(§5) For data analysis, the SDMA signal is normalized to the DRAQ5 signal. Assay background is determined by the signal from wells treated with 1 μM GSK3326595, and subtracted from every well. The data are plotted as % of the DMSO control wells for the MTAP-intact and the MTAP-deleted cell lines independently, and fitted to the 4-parameter logistic (4-PL) Hill equation with maximal effect constrained to 0. The fit was performed using GraphPad Prism or the default IC50 fitting procedure in Dotmatics Studies 5.4 as part of a customized data analysis protocol.

[2] = test system: SDMA (PRMT5 activity) in HAP1 MTAP-deleted cell line; experiment: SDMA in-cell western assay, HAP1 MTAP-deleted; conditions: for IC50 / IC90: Homo sapiens, SDMA in-cell western, HAP1 MTAP-deleted cells, 24 hours compound incubation; for Hap1 MTAP intact/deleted ratio: ratio of SDMA IC50 in HAP1 MTAP-intact to HAP1 MTAP-deleted cell line
Procedure: as §1, §2, §3, §4, §5

[3] = test system: HAP1 MTAP-deleted cell line; experiment: Viability assay (CellTiter-Glo), HAP1 MTAP-deleted; conditions: Homo sapiens, 168 h, HAP1 MTAP-deleted cells, 7 days
Procedure: All test compounds are maintained as 10 mM DMSO stocks.
On Day 0, MTAP-intact and MTAP-deleted cells are seeded in a 96-well plate, and incubated in a humidified, 5 or 10% CO2 tissue culture incubator for 16-24 hours. On Day 1, the test compounds are dispensed to wells at defined concentrations using a Tecan D300e digital dispenser (n=3), and the volume of DMSO is normalized to highest class volume (0.2%). The compound-treated plates are incubated for 7 days in a humidified, 5 or 10% CO2 tissue culture incubator.
On Day 7, the plates are removed from the tissue culture incubator and allowed to equilibrate to room temperature. Then either a ½% volume CellTiter-Glo Luminescent Cell Viability Assay reagent (Promega G7572) is added to each well, or the media is removed from every well and a 1:3 dilution of CellTiter-Glo 2.0 Cell Viability Assay reagent (Promega G9241) in 1×PBS is added. Ten minutes after addition, the luminescent signal is detected by an Envision plate reader. The data are plotted as % of the DMSO control wells for the MTAP-intact and the MTAP-deleted cell lines independently, and fitted to the 4-parameter logistic (4-PL) Hill equation with maximal effect constrained to 0. The fit was performed using GraphPad Prism or the default IC50 fitting procedure in Dotmatics Studies 5.4 as part of a customized data analysis protocol.

SMILES | IC50 [2] [nM] | IC90 [2] [nM] | IC50 ([1]; HAP1, 24 h) [nM] | IC50 [1] [nM] | Hap1 MTAP intact/deleted ratio [2] | IC50 [3] [nM]
CCc1cc(NC(=O)C(=O)N2C[C@@H](C)CC[C@@H]2c2ccc3c(c2)OC2(CCN(C)CC2)O3)cnc1N [Compound 92, N-(6-amino-5-ethylpyridin-3-yl)-2-((2R,5S)-5-methyl-2-(1′-methylspiro[benzo[d][1,3]dioxole-2,4′-piperidin]-5-yl)piperidin-1-yl)-2-oxoacetamide] | 5 to 50 | 75 to 125 | – | > 50 | A (“A” indicates an IC50 ratio greater than or equal to 30 fold) | < 100
CCc1cc(NC(=O)C(=O)N2C[C@@H](C)CC[C@@H]2c2ccc3sc(C4=C(C)CN(C)CC4)nc3c2)cnc1N [Compound 84, N-(6-amino-5-ethylpyridin-3-yl)-2-((2R,5S)-2-(2-(1,5-dimethyl-1,2,3,6-tetrahydropyridin-4-yl)benzo[d]thiazol-5-yl)-5-methylpiperidin-1-yl)-2-oxoacetamide] | < 5 | < 75 | – | > 50 | B (“B” indicates an IC50 ratio greater than or equal to 15 fold but lower than 30 fold) | < 100
COc1ncc(NC(=O)C(=O)N2C[C@@H](C)CC[C@@H]2c2ccc3cn(CCN(C)C)nc3c2)cc1C(N)=O [Compound 7, 2-methoxy-5-[[2-oxo-2-[(2R,5S)-2-[2-[2-(dimethylamino)ethyl]indazol-6-yl]-5-methyl-1-piperidyl]acetyl]amino]pyridine-3-carboxamide] | 5 to 50 | < 75 | > 50 | – | A (“A” indicates an IC50 ratio greater than or equal to 30 fold) | < 100
CCc1cc(NC(=O)C(=O)N2C[C@@H](C)CC[C@@H]2c2ccc3nn([C@@H]4CCN(C)C(C)(C)C4)cc3c2)cnc1N [Compound 108] | < 5 | < 75 | 5 to 50 | – | B (“B” indicates an IC50 ratio greater than or equal to 15 fold but lower than 30 fold) | < 100
COc1ncc(NC(=O)C(=O)N2C[C@@H](C)CC[C@@H]2c2ccc3cn([C@H]4CCN(C)C4)nc3c2)cc1C(N)=O [Compound 103, 2-methoxy-5-(2-((2R,5S)-5-methyl-2-(2-((S)-1-methylpyrrolidin-3-yl)-2H-indazol-6-yl)piperidin-1-yl)-2-oxoacetamido)nicotinamide] | < 5 | < 75 | > 50 | – | A (“A” indicates an IC50 ratio greater than or equal to 30 fold) | < 100
[2H]C([2H])([2H])N1CCC(c2nc3cc([C@H]4CC[C@H](C)CN4C(=O)C(=O)Nc4cnc(OC)c(C(N)=O)c4)ccc3s2)CC1 [Compound 5, 2-methoxy-5-[[2-oxo-2-[(2R,5S)-5-methyl-2-[2-[1-(trideuteriomethyl)-4-piperidyl]-1,3-benzothiazol-5-yl]-1-piperidyl]acetyl]amino]pyridine-3-carboxamide] | – | – | – | – | – | < 100
[2H][13C]([2H])([2H])N1CCC(c2nc3cc([C@H]4CC[C@H](C)CN4C(=O)C(=O)Nc4cnc(N)c(CC)c4)ccc3s2)CC1 [Compound 129, N-(6-amino-5-ethyl-3-pyridyl)-2-oxo-2-[(2R,5S)-5-methyl-2-[2-[1-(trideuterio(1^13C)methyl)-4-piperidyl]-1,3-benzothiazol-5-yl]-1-piperidyl]acetamide] | – | – | – | – | – | < 100
COc1ncc(NC(=O)C(=O)N2C[C@@H](C)CC[C@@H]2c2ccc3sc(C[C@H](C)N(C)C)nc3c2)cc1C(N)=O [Compound 98, 5-(2-((2R,5S)-2-(2-((S)-2-(dimethylamino)propyl)benzo[d]thiazol-5-yl)-5-methylpiperidin-1-yl)-2-oxoacetamido)-2-methoxynicotinamide] | < 5 | < 75 | > 50 | – | A (“A” indicates an IC50 ratio greater than or equal to 30 fold) | –

The next lines start with results.

IC50 [2] [nM] | IC90 [2] [nM] | IC50 ([1]; HAP1, 24 h) [nM] | SMILES | IC50 [1] [nM] | Hap1 MTAP intact/deleted ratio [2] | IC50 [3] [nM]
< 5 | < 75 | > 50 | COc1ncc(NC(=O)C(=O)N2C[C@@H](C)CC[C@@H]2c2ccc3sc(CC(C)(C)N(C)C)nc3c2)cc1C(N)=O [Compound 120, 5-(2-((2R,5S)-2-(2-(2-(dimethylamino)-2-methylpropyl)benzo[d]thiazol-5-yl)-5-methylpiperidin-1-yl)-2-oxoacetamido)-2-methoxynicotinamide] | – | A (“A” indicates an IC50 ratio greater than or equal to 30 fold) | < 100
< 5 | < 75 | 5 to 50 | COc1ncc(NC(=O)C(=O)N2C[C@@H](C)CC[C@@H]2c2ccc3sc([C@@H]4CN(C)CC4(C)C)nc3c2)cc1C(N)=O (single isomer, unassigned) [Compound 74] | – | B (“B” indicates an IC50 ratio greater than or equal to 15 fold but lower than 30 fold) | < 100
< 5 | < 75 | > 50 | COc1ncc(NC(=O)C(=O)N2C[C@@H](C)CC[C@@H]2c2ccc3cn([C@@H]4CCN(C)C4)nc3c2)cc1C(N)=O [Compound 102, 2-methoxy-5-(2-((2R,5S)-5-methyl-2-(2-((R)-1-methylpyrrolidin-3-yl)-2H-indazol-6-yl)piperidin-1-yl)-2-oxoacetamido)nicotinamide] | – | A (“A” indicates an IC50 ratio greater than or equal to 30 fold) | < 100
< 5 | < 75 | 5 to 50 | CCc1cc(NC(=O)C(=O)N2C[C@@H](C)CC[C@@H]2c2ccc3sc([C@H]4CN5CC[C@@H]4C5)nc3c2)cnc1N (racemic) [Compound 21, 2-((2R,5S)-2-(2-(1-azabicyclo[2.2.1]heptan-3-yl)benzo[d]thiazol-5-yl)-5-methylpiperidin-1-yl)-N-(6-amino-5-ethylpyridin-3-yl)-2-oxoacetamide] | – | C (“C” indicates an IC50 ratio of less than 15 fold) | < 100
< 5 | < 75 | > 50 | CCc1cc(NC(=O)C(=O)N2C[C@@H](C)CC[C@@H]2c2ccc3sc([C@@H]4CN(C)C[C@H]4C)nc3c2)cnc1N (mixture of isomers) [Compound 10, N-(6-amino-5-ethylpyridin-3-yl)-2-((2R,5S)-2-(2-(rac-(3S,4S)-1,4-dimethylpyrrolidin-3-yl)benzo[d]thiazol-5-yl)-5-methylpiperidin-1-yl)-2-oxoacetamide] | – | A (“A” indicates an IC50 ratio greater than or equal to 30 fold) | < 100
< 5 | < 75 | > 50 | COc1ncc(NC(=O)C(=O)N2C[C@@H](C)CC[C@@H]2c2ccc3sc(C4=CCN(C)CC4)nc3c2)cc1C(N)=O [Compound 83, 2-methoxy-5-(2-((2R,5S)-5-methyl-2-(2-(1-methyl-1,2,3,6-tetrahydropyridin-4-yl)benzo[d]thiazol-5-yl)piperidin-1-yl)-2-oxoacetamido)nicotinamide] | – | A (“A” indicates an IC50 ratio greater than or equal to 30 fold) | < 100
< 5 | < 75 | > 50 | COc1ncc(NC(=O)C(=O)N2C[C@@H](C)CC[C@@H]2c2ccc3sc([C@H](C)CN(C)C)nc3c2)cc1C(N)=O [Compound 11, 2-methoxy-5-[[2-oxo-2-[(2R,5S)-5-methyl-2-[2-[(^1S)-2-(dimethylamino)-1-methyl-ethyl]-1,3-benzothiazol-5-yl]-1-piperidyl]acetyl]amino]pyridine-3-carboxamide] | – | A (“A” indicates an IC50 ratio greater than or equal to 30 fold) | < 100
